# Values of other authors in patent publication EP3807270B1, “NOVEL HETEROARYL HETEROCYCLYL COMPOUNDS FOR THE TREATMENT OF AUTOIMMUNE DISEASE” (F. Hoffmann-La Roche AG, priority 2018, dated 2019).
# Target: T1, hTLR9 (Homo sapiens, UniProt Q9NR96)
# T1 sequence (Q9NR96 26-1032): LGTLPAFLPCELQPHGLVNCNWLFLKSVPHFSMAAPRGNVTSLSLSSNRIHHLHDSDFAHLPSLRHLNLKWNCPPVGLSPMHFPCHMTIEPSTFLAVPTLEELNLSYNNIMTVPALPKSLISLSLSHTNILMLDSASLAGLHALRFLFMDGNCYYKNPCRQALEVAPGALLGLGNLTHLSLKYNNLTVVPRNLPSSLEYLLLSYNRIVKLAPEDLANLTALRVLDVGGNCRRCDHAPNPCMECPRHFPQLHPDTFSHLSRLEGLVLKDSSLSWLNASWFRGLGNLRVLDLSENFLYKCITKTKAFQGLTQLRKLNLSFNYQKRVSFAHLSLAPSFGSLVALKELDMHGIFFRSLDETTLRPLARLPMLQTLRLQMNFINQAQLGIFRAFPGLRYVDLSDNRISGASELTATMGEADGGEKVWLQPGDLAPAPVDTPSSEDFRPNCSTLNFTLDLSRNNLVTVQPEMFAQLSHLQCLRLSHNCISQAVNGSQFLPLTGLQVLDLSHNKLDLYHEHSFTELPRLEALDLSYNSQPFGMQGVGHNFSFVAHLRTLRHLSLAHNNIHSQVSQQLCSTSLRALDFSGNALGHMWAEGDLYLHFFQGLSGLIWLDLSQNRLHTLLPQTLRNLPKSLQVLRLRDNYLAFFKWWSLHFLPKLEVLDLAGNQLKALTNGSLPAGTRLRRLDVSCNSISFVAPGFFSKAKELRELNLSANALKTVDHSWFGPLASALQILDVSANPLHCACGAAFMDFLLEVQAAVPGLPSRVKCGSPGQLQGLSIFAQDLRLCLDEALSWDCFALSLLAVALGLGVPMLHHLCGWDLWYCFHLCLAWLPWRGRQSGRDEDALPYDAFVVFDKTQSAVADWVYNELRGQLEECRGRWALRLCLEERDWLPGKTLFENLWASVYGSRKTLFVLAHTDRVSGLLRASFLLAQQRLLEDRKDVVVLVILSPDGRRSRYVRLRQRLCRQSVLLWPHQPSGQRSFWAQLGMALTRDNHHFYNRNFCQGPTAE
# Parameters: host or cells: HEK
# Details: data disclosed in US20150105370; read-out: HEK/hTLR9 IC50; cited from earlier work
smiles,measurement,value
"C[C@@H]1CN(c2ccc(C#N)c3ncccc23)C[C@H](CN2CCN(c3ccncc3)CC2)O1 [ER-888286, reference compound]",IC50,> 2000 nM
